The source of these data is patent US5863917A, “Quinoxaline derivatives useful in therapy” (Pfizer, Inc., priority 1996, dated 1999).

One may read the IC50 as the midpoint of a concentration-inhibition curve. Read a high IC50 as weaker potency.

The structures appear in SMILES notation. A value given as a limit tells only on which side of the number the result lay.

The target of the test is T1, glycine site of the NMDA receptor (Rattus norvegicus, UniProt P35439).
T1 construct: rat brain membranes; from tissue; host or cells: rat brain membranes
Description: Binding affinity for the glycine site of the NMDA receptor (test (a)). To be noted: displacement of a selective glycine site radioligand ([3H]-L-689,560) from rat brain membranes, tris-acetate buffer pH 7.4, 90 minutes. The method, then:
(a) Binding affinity for the glycine site of the NMDA receptor
This may be measured by testing a compound's ability to displace a selective glycine site radioligand from rat brain membranes as described in Brit J Pharm (1991), 104, 74. In a variation of this method, thoroughly washed membrane protein is incubated with [^3 H]-L-689,560 for 90 minutes using tris-acetate buffer (pH 7.4). Displacement of the radioligand, using a range of test compound concentrations, is used to derive IC50 (50% inhibitory concentration) values.

For the compound `Cc1c(Cl)cc2[nH]c(=O)c(=O)[nH]c2c1N(CC(=O)O)S(C)(=O)=O` [Example 3, N-(Carboxymethyl)-N-(1,4-dihydro-7-chloro-6-methyl-2,3-dioxoquinoxalin-5-yl)methanesulphonamide], the half-inhibitory concentration (IC50) is < 100 nM.

Regarding `Cc1c(Cl)cc2[nH]c(=O)c(=O)[nH]c2c1N(CCNS(=O)(=O)C(F)(F)F)S(C)(=O)=O` [Example 4], the concentration for half-maximal inhibition (IC50) was < 100 nM.

Regarding `COC(=O)CN(c1c(C)c(C)cc2[nH]c(=O)c(=O)[nH]c12)S(C)(=O)=O` [Example 10], the IC50 was < 100 nM.

Regarding `Cn1cnc(S(=O)(=O)NCCN(c2c(Cl)c(Cl)cc3[nH]c(=O)c(=O)[nH]c23)S(C)(=O)=O)c1` [Example 2, N-(1,4-Dihydro-6,7-dichloro-2,3-dioxoquinoxalin-5-yl)-N-(2-(N'-4-(1H-1-methylimidazolyl)sulphonyl)aminoethyl)methanesulphonamide], the 50% inhibitory concentration (IC50) was < 100 nM.

For `Cc1cc2[nH]c(=O)c(=O)[nH]c2c(N(CC(=O)O)S(C)(=O)=O)c1Cl` [5 [the (-)-isomer]], the concentration for half-maximal inhibition (IC50) is < 100 nM.

Consider `CS(=O)(=O)NCCN(c1c(Cl)c(Cl)cc2[nH]c(=O)c(=O)[nH]c12)S(C)(=O)=O` [Example 1, N-(1,4-Dihydro-6,7-dichloro-2,3-dioxoquinoxalin-5-yl)-N-(2-(N'-methanesulphonyl)-aminoethyl)methanesulphonamide], for which the IC50 is < 100 nM.

On to `Cc1cc2[nH]c(=O)c(=O)[nH]c2c(N(CC(=O)O)S(C)(=O)=O)c1C` [Example 7, N-(Carboxymethyl)-N-(1,4dihydro-6,7-dimethyl-2,3-dioxoquinoxalin-5-yl)methanesulphonamide], for which the IC50 is < 100 nM.

Regarding `CCOC(=O)CN(c1c(C)c(C)cc2[nH]c(=O)c(=O)[nH]c12)S(C)(=O)=O` [Example 11], the IC50 was < 100 nM.

As for `CCCOC(=O)CN(c1c(C)c(C)cc2[nH]c(=O)c(=O)[nH]c12)S(C)(=O)=O` [Example 12], the IC50 is < 100 nM.
